Where no end group is shown, it is not given here.
Assays:
[1] = tested on: Arabidopsis seedlings, primary root; conditions: wild-type Arabidopsis; ref [5]; cited from earlier work
Experimental: To better understand the role of AtRALF1 and BRs in regulating cell expansion, we exposed different mutants and transgenic Arabidopsis plants with altered BR signaling pathways to the peptide hormone AtRALF1 at concentrations that inhibit root growth. Loss-of-function mutants (bri1-301, bsk3-2 and bak1-4), gain-of-function mutants (sud1, bes1-D and bzr1-D) and two overexpressor lines (BRI OX and DWF4 OX) were used in the root growth assays in the presence or absence of 10 μM AtRALF1 (Fig 1A).

[2] = tested on: truncated proteins from the extracellular domain of BAK1; assay: Yeast two-hybrid with truncated BAK1-ECD; format: binding, Arabidopsis thaliana
Text: Fig 6 AtRALF1 interacts physically with BAK1 protein. (A) The active AtRALF1 peptide interacts with the extracellular domain (ECD) of BAK1 (BAK1-ECD) in yeast. The AtRALF1 protein fused to the GAL4 DNA-binding domain (AtRALF1-pGBKT7) was used as bait to test its interaction with the extracellular domain of the proteins fused to the GAL4 activation domain (pGADT7): BAK1 (BAK1-ECD), BAK7 (BAK7-ECD), BRI1 (BRI1-ECD) and FLS2 (FLS2-ECD). (B) Blueprint showing the truncated proteins from the extracellular domain of BAK1 tested in the two-hybrid assay. The extracellular domain of BAK1 comprises leucine zippers (LZ), 5 leucine rich-regions (LRRs) and a proline-rich region (pro-rich). (C) AtRALF1-pGBKT7 was used as bait to test its interaction with truncated proteins fused to the GAL4 activation domain (pGADT7). The transformed yeast cells in (A) and (C) were selected on a synthetic complete medium lacking leucine, tryptophan and histidine to test interactions. (D, E) Co-immunoprecipitation (Co-IP) in vitro between the extracellular domain of BAK1 (HA-BAK1-ECD) and AtRALF1 recombinant purified proteins. HA-BAK1-ECD was detected with an anti-HA antibody. AtRALF1 was detected with an anti-RALF antibody. (F) Recombinant AtRALF1 is co-immunoprecipitated with the BAK1-GFP protein expressed in tobacco. BAK1-GFP was detected with an anti-GFP antibody. […] (G) Isothermal titration calorimetry (ITC) of the extracellular domain of BAK1 (BAK1-ECD) vs. AtRALF1 in ITC buffer (15 mM HEPES, pH 6.8). ITC experiments were simulated using 28 injections of BAK1-ED (0.7 mM, vol 10 μL) on AtRALF1 (0.03 mM vol cell = 1.4 mL) at 25°C. […]
The coding regions of the mature peptides AtRALF1 and AtRALF34 were amplified from Arabidopsis genomic DNA and fused to the GAL4 DNA-binding domain and the MYC epitope tag using the NdeI/BamHI sites in the pGBKT7 (Clontech) vector. […] The proteins fused to the HA and MYC epitope tags were detected by protein blotting. […]
Supplementary file pgen.1007053.s012.pdf: S12 Fig Analyses of protein extracts from yeast. […] The proteins were monitored using an anti-HA antibody. […]

[3] = tested on: Arabidopsis endodermic root cells; assay: Root cell length, endodermis of differentiation zone; format: in vivo, Arabidopsis thaliana; conditions: 10 μM, 2 days
Experimental: (A) and (B) Arabidopsis seedlings (2 days old) were treated with 10 μM AtRALF1 or water (H20) for 2 days. The values are the mean ± SD of at least 25 seedlings. Triple asterisks indicate P < 0.01 (Student’s t test); ns, not significant. (C) Four-day-old seedlings were transferred to media containing different concentrations of AtRALF1, and the primary root length was measured after 8 days of treatment. The data represent the mean value ± SD of 30 seedlings. […] Representative Arabidopsis seedlings after 8 days of treatment with AtRALF1 are shown below. Seedlings were arranged on plates after the treatment for imaging. Scale bars, 1 cm. (D) Two-day-old seedlings were treated with 10 μM AtRALF1 or water for 2 days, and root cell length was measured after 2 days of treatment. Cells from the root endodermis in the differentiation zone were measured. The values are the mean ± SD of approximately 150 cells. […]
Aliquots of 1 ml of medium containing seeds were distributed into 24-well plates. The peptides (10 μM) were added after 2 days, and the root length was measured 2 days after treatment. […] The root length was measured 8 days after treatment unless stated otherwise. […] Quantitative data were obtained as previously described. […] For cell length measurements, AtRALF1 peptide (10 μM) was added after 2 days of germination, and the cell length was measured after 2 days of treatment. […]

AtRALF1: root-specific RALF isoform in Arabidopsis; recombinant peptide hormone produced in E. coli (ATTKYISYQSLKRNSVPCSRRGASYYNCQNGAQANPYSRGCSKIARCRS; ends and bridges not checked; cysteine pairing not given here)
primary root growth inhibition [1]: inhibits the primary root growth of wild-type Arabidopsis plants
interaction with truncated BAK1-ECD ([2]; 12 truncated proteins): only two that interacted with AtRALF1: Leu zippers + LRR1 + LRR2 + LRR3 and Leu zippers + LRR1 + LRR2
interaction with BAK1-ECD lacking Pro-rich region and LRR5 ([2]; C-terminal deletion): abolished the interaction
interaction with N-terminal deletions of BAK1-ECD ([2]; deletions from N-terminal): None of the deletions from N-terminal were able to interact with AtRALF1
root cell length vs water-treated control ([3]; bak1-1, bak1-3, bak1-4): showed no difference between AtRALF1-treated plants and the water-treated control
reduction of root cell length vs water-treated control ([3]; wild-type, ~150 cells): 58%

— PMC5656322, “BAK1 is involved in AtRALF1-induced inhibition of root cell expansion” (PLoS Genetics, 2017)
